Laboratory results from ChEMBL document CHEMBL3286379, “Design and synthesis of pyrimidine molecules endowed with thiazolidin-4-one as new anticancer agents” (Eur J Med Chem, 2014).

Key:
Assay type in all cases: functional
[1] = Growth inhibition of human MOLT4 cells after 48 hrs by sulforhodamine B assay; conditions: MOLT-4, 48 h
[2] = system: SR; experiment: Growth inhibition of human SR cells after 48 hrs by sulforhodamine B assay
[3] = system: NCI-H226; experiment: Growth inhibition of human NCI-H226 cells after 48 hrs by sulforhodamine B assay; conditions: NCI-H226, 48 h
[4] = system: NCI-H23; experiment: Growth inhibition of human NCI-H23 cells after 48 hrs by sulforhodamine B assay; conditions: NCI-H23, 48 h
[5] = system: SW-620; experiment: Growth inhibition of human SW620 cells after 48 hrs by sulforhodamine B assay; conditions: SW-620, 48 h
[6] = Growth inhibition of human LOXIMVI cells after 48 hrs by sulforhodamine B assay; conditions: LOX IMVI
[7] = system: SK-MEL-5; experiment: Growth inhibition of human SK-MEL-5 cells after 48 hrs by sulforhodamine B assay; conditions: SK-MEL-5, 48 h
[8] = Growth inhibition of human UACC257 cells after 48 hrs by sulforhodamine B assay; conditions: UACC-257, 48 h
[9] = Growth inhibition of human OVCAR8 cells after 48 hrs by sulforhodamine B assay; conditions: OVCAR-8, 48 h
[10] = Growth inhibition of human NCI-ADR-RES cells after 48 hrs by sulforhodamine B assay
[11] = system: CAKI-1; experiment: Growth inhibition of human CAKI-1 cells after 48 hrs by sulforhodamine B assay; conditions: CAKI-1, 48 h
[12] = Growth inhibition of human BT549 cells after 48 hrs by sulforhodamine B assay; conditions: BT-549, 48 h
[13] = read-out: LC50 (the source's name)
[14] = read-out: pLC50 (the source's name) (converted)

`Nc1nc(-c2ccccc2Cl)cc(-c2ccc(Cl)cc2Cl)n1` gave a GI50 ([1]; read-out: GI50) of 4.82 µM, a CC50 [1, 13] of over 100 µM and a TGI ([1]; read-out: TGI) of over 100 µM. The GI50 ([1]; read-out: pGI50 (converted)) was 4.79 µM, the CC50 [1, 14] was over 100 µM and the TGI ([1]; read-out: pTGI) was over 100 µM. For the same molecule, the GI50 ([2]; read-out: GI50) was 4.1 µM, the CC50 [2, 13] was over 100 µM and the TGI ([2]; read-out: TGI) was over 100 µM. For the same molecule, the GI50 ([2]; read-out: pGI50 (converted)) was 4.07 µM, the CC50 [2, 14] was over 100 µM and the TGI ([2]; read-out: pTGI) was over 100 µM. It also gave a GI50 ([3]; read-out: GI50) of 81.1 µM, a CC50 [3, 13] of over 100 µM and a TGI ([3]; read-out: TGI) of over 100 µM. It also gave a GI50 ([3]; read-out: pGI50 (converted)) of 18.2 µM, a CC50 [3, 14] of over 100 µM and a TGI ([3]; read-out: pTGI) of over 100 µM. The GI50 ([4]; read-out: GI50) was 12.3 µM, the CC50 [4, 13] was over 100 µM and the TGI ([4]; read-out: TGI) was over 100 µM. It also gave a GI50 ([4]; read-out: pGI50 (converted)) of 12.3 µM, a CC50 [4, 14] of over 100 µM and a TGI ([4]; read-out: pTGI) of over 100 µM. The GI50 ([5]; read-out: GI50) was 3.41 µM, the CC50 [5, 13] was over 100 µM and the TGI ([5]; read-out: TGI) was over 100 µM. The GI50 ([5]; read-out: pGI50 (converted)) was 3.39 µM, the CC50 [5, 14] was over 100 µM and the TGI ([5]; read-out: pTGI) was over 100 µM. The GI50 ([6]; read-out: GI50) was 4.89 µM, the CC50 [6, 13] was over 100 µM and the TGI ([6]; read-out: TGI) was over 100 µM. It also gave a GI50 ([6]; read-out: pGI50 (converted)) of 4.9 µM, a CC50 [6, 14] of over 100 µM and a TGI ([6]; read-out: pTGI) of over 100 µM. For the same molecule, the GI50 ([7]; read-out: GI50) was 4.78 µM, the CC50 [7, 13] was 71.1 µM and the TGI ([7]; read-out: TGI) was 20.8 µM. It also gave a GI50 ([7]; read-out: pGI50 (converted)) of 4.79 µM, a CC50 [7, 14] of 70.8 µM and a TGI ([7]; read-out: pTGI (converted)) of 20.9 µM. For the same molecule, the GI50 ([8]; read-out: GI50) was 11.9 µM, the CC50 [8, 13] was over 100 µM and the TGI ([8]; read-out: TGI) was 55.2 µM. The GI50 ([8]; read-out: pGI50 (converted)) was 11.7 µM, the CC50 [8, 14] was over 100 µM and the TGI ([8]; read-out: pTGI (converted)) was 55 µM. The GI50 ([9]; read-out: GI50) was 6.87 µM, the CC50 [9, 13] was over 100 µM and the TGI ([9]; read-out: TGI) was over 100 µM. It also gave a GI50 ([9]; read-out: pGI50 (converted)) of 6.92 µM, a CC50 [9, 14] of over 100 µM and a TGI ([9]; read-out: pTGI) of over 100 µM. For the same molecule, the GI50 ([10]; read-out: GI50) was 14.8 µM, the CC50 [10, 13] was over 100 µM and the TGI ([10]; read-out: TGI) was over 100 µM. For the same molecule, the GI50 ([10]; read-out: pGI50 (converted)) was 14.8 µM, the CC50 [10, 14] was over 100 µM and the TGI ([10]; read-out: pTGI) was over 100 µM. It also gave a GI50 ([11]; read-out: GI50) of 9.27 µM, a CC50 [11, 13] of over 100 µM and a TGI ([11]; read-out: TGI) of over 100 µM. It also gave a GI50 ([11]; read-out: pGI50 (converted)) of 9.33 µM, a CC50 [11, 14] of over 100 µM and a TGI ([11]; read-out: pTGI) of over 100 µM. For the same molecule, the GI50 ([12]; read-out: GI50) was 13.8 µM, the CC50 [12, 13] was over 100 µM and the TGI ([12]; read-out: TGI) was over 100 µM. It also gave a GI50 ([12]; read-out: pGI50 (converted)) of 13.8 µM, a CC50 [12, 14] of over 100 µM and a TGI ([12]; read-out: pTGI) of over 100 µM.
